SMILES strings stand for the structures. Like-named read-outs stand apart in the source and are kept apart here. Where only a bound is given, the exact number is not on record here.

Type in all cases: biochemical
In one assay the target is T1, Human MMP1 (Homo sapiens, UniProt P03956).
T1 construct: purchased Calbiochem 444208
T1 sequence (P03956 100-469): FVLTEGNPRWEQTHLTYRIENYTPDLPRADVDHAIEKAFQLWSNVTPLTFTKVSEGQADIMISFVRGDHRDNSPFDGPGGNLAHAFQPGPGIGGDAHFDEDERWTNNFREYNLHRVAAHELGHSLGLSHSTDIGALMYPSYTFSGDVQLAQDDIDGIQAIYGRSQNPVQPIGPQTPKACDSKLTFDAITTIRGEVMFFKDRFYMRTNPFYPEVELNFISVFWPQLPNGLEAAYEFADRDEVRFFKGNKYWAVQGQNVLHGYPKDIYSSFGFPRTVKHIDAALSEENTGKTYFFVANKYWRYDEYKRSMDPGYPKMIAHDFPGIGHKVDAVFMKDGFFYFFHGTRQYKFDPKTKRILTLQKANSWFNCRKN
In words: MMP1 inhibition experiment. The conditions noted are these: read-out: IC50 value MMP-1.

The target of another assay is T2, Human MMP2 (Homo sapiens, UniProt P08253).
T2 construct: purchased Calbiochem 444213
T2 sequence (P08253 110-660): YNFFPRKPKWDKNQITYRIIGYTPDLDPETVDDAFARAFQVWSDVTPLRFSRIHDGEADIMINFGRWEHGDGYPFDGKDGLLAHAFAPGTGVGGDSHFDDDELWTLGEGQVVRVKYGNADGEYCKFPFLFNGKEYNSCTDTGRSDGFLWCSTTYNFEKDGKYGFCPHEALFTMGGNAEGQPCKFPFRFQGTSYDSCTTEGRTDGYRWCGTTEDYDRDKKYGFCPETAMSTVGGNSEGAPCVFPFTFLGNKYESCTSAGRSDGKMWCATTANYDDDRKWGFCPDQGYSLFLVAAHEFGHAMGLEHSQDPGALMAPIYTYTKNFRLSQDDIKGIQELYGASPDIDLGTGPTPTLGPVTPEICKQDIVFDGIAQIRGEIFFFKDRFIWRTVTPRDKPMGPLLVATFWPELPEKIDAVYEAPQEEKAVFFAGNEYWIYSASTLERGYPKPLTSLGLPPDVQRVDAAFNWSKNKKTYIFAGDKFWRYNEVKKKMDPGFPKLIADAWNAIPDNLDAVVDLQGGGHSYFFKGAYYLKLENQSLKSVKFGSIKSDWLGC
In words: MMP2 inhibition experiment. The note with it: concentration required for 50% inhibition of enzyme activity; read-out: IC50 value MMP-2.

The target of the next assay is T3, Human MMP3 (Homo sapiens, UniProt P08254).
T3 construct: purchased Calbiochem 444217
In words: MMP3 inhibition experiment. The note with it: concentration required for 50% inhibition of enzyme activity; read-out: IC50 value MMP-3. In a few lines:
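Fluorescence-quenched substrate NFF-3 (MOCAc/Dnp peptide, 20 μM as prepared) cleaved by 5 ng human MMP3 over 5 hours at 37° C, with inhibition measured from substrate fluorescence.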

The target of a further assay is T4, TACE (Homo sapiens, UniProt P78536).
T4 construct: made in house; host or cells: mammalian cells or insect cells
In words: TACE inhibition experiment (in vitro).

The next assay concerns the target T5, Human MMP9 (Homo sapiens, UniProt P14780).
T5 construct: purchased Calbiochem 444231
The assay can be described thus: MMP9 inhibition experiment. The conditions noted are these: read-out: IC50 value MMP-9.

A further assay has as its target T6, Human MMP13 (Homo sapiens, UniProt P45452).
T6 construct: purchased Chemicon CC068
In words: MMP13 inhibition experiment. The conditions noted are these: concentration required for 50% inhibition of enzyme activity; read-out: IC50 value MMP-13.

The target of another assay is T7, Human MMP8 (Homo sapiens, UniProt P22894).
T7 construct: purchased Calbiochem 444229
The assay can be described thus: MMP8 inhibition experiment. The note with it: concentration required for 50% inhibition of enzyme activity; read-out: IC50 value MMP-8. As to the method: MMP inhibition experiment may be carried out using a fluorescent synthetic substrate according to, for example, the methods of Bickett et al. (D. Mark Bickett et al., Anal. Biochem., 1993, 212, 58-64) and Nagase et al. (H. Nagase et al., J. Biol. Chem., 1994, 269, 20952-20957). The methods of inhibition experiments carried out for various MMPs are described below.
Human MMP8 (Calbiochem #444229) in amount of 90 μL (30 ng) was activated by mixing with 10 μL of 10 mM APMA, followed by reaction for 1 hour at 37° C. This enzyme solution in amount of 10 μL was diluted to 90 μL with the assay buffer A, which was added to 90 μL of […] fluorescent substrate (MOCAc-Pro-Leu-Gly-Leu-A2pr(Dnp)-Ala-Arg-NH2, Peptide Institute, Inc., #3163-v) prepared in the assay buffer B, followed by reaction for 5 hours at 37° C.

The target of the next assay is T8, Human MMP14 (Homo sapiens, UniProt P50281).
T8 construct: purchased Biogenesis or Calbiochem 5980-1461 or 475935
In words: MMP14 inhibition experiment. The conditions noted are these: concentration required for 50% inhibition of enzyme activity; read-out: IC50 value MMP-14. In a few lines: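 Fluorescence assay: substrate Dnp-Pro-Cha-Gly-Cys(Me)-His-Ala-Lys(Nma)-NH2 (20 μM before equal-volume mixing) incubated at 37° C for 5 hours with 4 ng human MMP14.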

The next assay has as its target T9, Human MMP17 (Homo sapiens, UniProt Q9ULZ9).
T9 construct: purchased Calbiochem 475940
T9 sequence (Q9ULZ9 126-300 limits assumed): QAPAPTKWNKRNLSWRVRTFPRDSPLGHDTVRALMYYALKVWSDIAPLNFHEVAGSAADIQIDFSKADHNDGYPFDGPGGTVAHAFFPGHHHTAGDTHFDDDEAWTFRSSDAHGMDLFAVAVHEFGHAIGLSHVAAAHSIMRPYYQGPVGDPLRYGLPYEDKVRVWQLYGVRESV
The assay can be described thus: MMP17 inhibition test. The conditions noted are these: concentration required for 50% inhibition of enzyme activity; read-out: IC50 value MMP-17.

Where [1] appears, read: concentration required for 50% inhibition of enzyme activity.

T3 sequence (P08254 100-272 limits assumed): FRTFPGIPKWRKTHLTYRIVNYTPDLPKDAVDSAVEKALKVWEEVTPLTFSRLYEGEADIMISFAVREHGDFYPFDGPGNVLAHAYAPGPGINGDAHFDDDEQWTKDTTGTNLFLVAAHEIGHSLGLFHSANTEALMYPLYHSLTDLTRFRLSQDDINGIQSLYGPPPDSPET
T5 sequence (P14780 107-707 limits assumed): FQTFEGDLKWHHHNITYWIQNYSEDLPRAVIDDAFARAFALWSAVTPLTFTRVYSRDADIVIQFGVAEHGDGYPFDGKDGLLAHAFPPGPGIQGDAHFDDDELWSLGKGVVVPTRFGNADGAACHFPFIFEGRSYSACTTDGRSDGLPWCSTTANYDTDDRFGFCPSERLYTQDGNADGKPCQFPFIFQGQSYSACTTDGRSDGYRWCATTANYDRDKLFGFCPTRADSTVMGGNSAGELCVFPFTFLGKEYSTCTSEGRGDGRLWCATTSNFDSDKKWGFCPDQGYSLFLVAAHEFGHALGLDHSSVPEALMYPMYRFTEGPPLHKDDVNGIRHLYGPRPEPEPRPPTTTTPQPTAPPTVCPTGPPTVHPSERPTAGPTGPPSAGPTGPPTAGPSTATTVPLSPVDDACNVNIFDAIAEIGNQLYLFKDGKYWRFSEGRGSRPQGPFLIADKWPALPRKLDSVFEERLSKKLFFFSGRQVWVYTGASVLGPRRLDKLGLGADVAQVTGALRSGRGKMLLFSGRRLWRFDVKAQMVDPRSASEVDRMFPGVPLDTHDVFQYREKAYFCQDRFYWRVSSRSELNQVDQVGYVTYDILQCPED
T4 sequence (P78536 215-824): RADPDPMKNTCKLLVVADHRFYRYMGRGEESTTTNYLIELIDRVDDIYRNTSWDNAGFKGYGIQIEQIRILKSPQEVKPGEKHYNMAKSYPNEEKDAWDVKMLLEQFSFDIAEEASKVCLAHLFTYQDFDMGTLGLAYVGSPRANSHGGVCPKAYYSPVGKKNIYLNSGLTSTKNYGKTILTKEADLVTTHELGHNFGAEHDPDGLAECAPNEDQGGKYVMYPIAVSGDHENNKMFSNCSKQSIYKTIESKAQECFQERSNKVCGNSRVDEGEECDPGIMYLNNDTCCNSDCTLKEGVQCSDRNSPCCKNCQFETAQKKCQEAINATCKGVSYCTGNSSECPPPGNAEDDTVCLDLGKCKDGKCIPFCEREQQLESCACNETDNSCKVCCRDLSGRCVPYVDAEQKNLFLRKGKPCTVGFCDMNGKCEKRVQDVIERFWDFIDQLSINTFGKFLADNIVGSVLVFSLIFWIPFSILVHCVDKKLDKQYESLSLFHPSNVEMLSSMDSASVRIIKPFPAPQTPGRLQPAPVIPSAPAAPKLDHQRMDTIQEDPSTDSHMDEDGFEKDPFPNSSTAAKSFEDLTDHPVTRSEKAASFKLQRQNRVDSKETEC
T7 sequence (P22894 101-467): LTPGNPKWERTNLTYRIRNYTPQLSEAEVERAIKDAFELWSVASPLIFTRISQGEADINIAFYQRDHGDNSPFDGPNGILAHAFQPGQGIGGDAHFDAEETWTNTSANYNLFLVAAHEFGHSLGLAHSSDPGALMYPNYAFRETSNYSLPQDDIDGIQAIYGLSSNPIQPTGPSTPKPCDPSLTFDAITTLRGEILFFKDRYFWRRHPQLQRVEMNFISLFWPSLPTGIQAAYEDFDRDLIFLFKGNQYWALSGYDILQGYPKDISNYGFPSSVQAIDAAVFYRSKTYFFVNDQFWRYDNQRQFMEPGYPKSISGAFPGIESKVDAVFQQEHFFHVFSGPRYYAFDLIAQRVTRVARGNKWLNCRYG
Method for Human MMP13: Human MMP13 (Chemicon #CC068) in amount of 90 μL (200 ng) was activated by mixing with 10 μL of 10 mM APMA, followed by reaction for 1 hour at 37° C. This enzyme solution in amount of 0.6 μL was diluted to 90 μL with the assay buffer A, which was added to 90 μL of 20 μM fluorescent substrate (Dnp-Pro-Cha-Gly-Cys(Me)-His-Ala-Lys(Nma)-NH2) prepared in the assay buffer B, followed by reaction for 4 hours at 37° C.
Method for Human MMP2: This enzyme solution in amount of 10 μL was diluted to 90 μL with the assay buffer A, which was added to 90 μL of 20 μM fluorescent substrate (MOCAc((7-methoxycoumarin-4-yl)acetyl)-Pro-Leu-Gly-Leu-A2pr(Dnp)-Ala-Arg-NH2, Peptide Institute, Inc., #3163-v) prepared in the assay buffer B, followed by reaction for 5 hours at 37° C.
Method for Human MMP9: This enzyme solution in amount of 1 μL was diluted to 90 μL with the assay buffer A, which was added to 90 μL of 20 μM fluorescent substrate (Dnp-Pro-Cha-Gly-Cys(Me)-His-Ala-Lys(Nma)-NH2) prepared in the assay buffer B, followed by reaction for 4 hours at 37° C.

Broadly, the IC50 is the concentration that gives 50% inhibition. Consider `Cc1cc(COc2ccc(S(=O)(=O)CC(CC3CCOCC3)N(O)C=O)cc2)c2ccccc2n1` (stereo not drawn) [Example I-29], for which the IC50 on Human MMP1 was more than 100 µM; on Human MMP2 it was 19 µM; on Human MMP3, 1.8 µM; against TACE, 0.0076 µM; at Human MMP9, more than 100 µM; at Human MMP13 it was 18 µM. Moreover, the results for the IC50 on Human MMP8, on Human MMP14 and on Human MMP17 were 19 µM, 90 µM and 0.96 µM, respectively.
Consider `Cc1ccc(CCCC(CS(=O)(=O)c2ccc(OCc3cc(C)nc4ccccc34)cc2)N(O)C=O)cc1` (stereo not drawn) [Example I-37], for which the half-inhibitory concentration (IC50) turned out to be 57 µM at Human MMP1; 2.7 µM on Human MMP2; 2 µM on Human MMP3; 0.17 µM on TACE; 22 µM at Human MMP9; 6 µM at Human MMP13. Further, the concentration for half-maximal inhibition (IC50) on Human MMP8 turned out to be 25 µM; at Human MMP14, 33 µM; on Human MMP17 it was 1.1 µM.
Regarding `COCOC1CCC(C)(C(CS(=O)(=O)c2ccc(OCc3cc(C)nc4ccccc34)cc2)N(O)C=O)CC1` (stereo not drawn) [Example I-128], the IC50 is more than 100 µM on Human MMP1; 43 µM on Human MMP2; 1.3 µM on Human MMP3; 0.032 µM at TACE; more than 100 µM on Human MMP9; 22 µM on Human MMP13. The IC50 at Human MMP8 is 25 µM; at Human MMP14, 50 µM; at Human MMP17 it was 0.54 µM.
For the compound `CC(=O)N1CCCC(C(CS(=O)(=O)c2ccc(OCc3cc(C)nc4ccccc34)cc2)N(O)C=O)C1` (stereo not drawn) [Example I-133], the half-inhibitory concentration (IC50) on Human MMP1 is more than 100 µM; on Human MMP2, 28 µM; on Human MMP3, 1.7 µM; at TACE, 0.026 µM; at Human MMP9 it was more than 100 µM; at Human MMP13 it was 25 µM. The 50% inhibitory concentration (IC50) on Human MMP8 came out at 18 µM; at Human MMP17, 0.9 µM.
Turning to `O=CN(O)C(C=C1CCC(=O)CC1)CS(=O)(=O)c1ccc(OCc2ccc3ccccc3n2)cc1` (stereo not drawn) [Example I-84], the concentration for half-maximal inhibition (IC50) at Human MMP1 was more than 100 µM; at Human MMP2, 6.6 µM; at Human MMP3 it was 78 µM; on TACE it was 0.55 µM; on Human MMP13, 28 µM; at Human MMP8, more than 100 µM. For the same compound, the IC50 at Human MMP14 was found to be 90 µM; at Human MMP17 it was 42 µM.
Consider `Cc1cc(COc2ccc(S(=O)(=O)CC(C=C3CCOCC3)N(O)C=O)cc2)c2ccccc2n1` (stereo not drawn) [Example I-9, N-Hydroxy-N-{2-[4-(2-methylquinolin-4-ylmethoxy)benzenesulfonyl]-1-(tetrahydropyran-4-ylidenemethyl)ethyl}formamide], for which the half-maximal inhibitory concentration (IC50) was more than 100 µM on Human MMP1; 60 µM on Human MMP2; 5.5 µM at Human MMP3; 53 µM at Human MMP9 (setting [1]); 25 µM on Human MMP13; 37.5 µM on Human MMP8. The 50% inhibitory concentration (IC50) on Human MMP14 came out at 70 µM; on Human MMP17, 3 µM.
In the case of `Cc1cc(COc2ccc(S(=O)(=O)CC(CC3CCC(=NO)CC3)N(O)C=O)cc2)c2ccccc2n1` (stereo not drawn) [Example I-27], the IC50 was found to be 50 µM at Human MMP1, 8 µM on Human MMP8 and 30 µM on Human MMP14.
Take `Cc1cc(COc2ccc(S(=O)(=O)CC(C=C3CCOCC3)N(O)C=O)cc2)c2ccccc2n1` (single isomer, unassigned) [Example I-34, N-hydroxy-N-{2-[4-(2-methylquinolin-4-ylmethoxy)benzenesulfonyl]-1-(tetrahydropyran-4-ylidenemethyl)ethyl}formamide]: the half-inhibitory concentration (IC50) at Human MMP1 (setting [1]), at Human MMP2, at Human MMP3, at Human MMP9 (setting [1]), on Human MMP13 and on Human MMP8 was more than 100 µM in each case. Besides, the IC50 was more than 100 µM at Human MMP14 and 40 µM on Human MMP17.
Take `Cc1cc(COc2ccc(S(=O)(=O)CC(C=C3CCOCC3)N(O)C=O)cc2)c2ccccc2n1` (single isomer, unassigned) [Example I-33, N-hydroxy-N-{2-[4-(2-methylquinolin-4-ylmethoxy)benzenesulfonyl]-1-(tetrahydropyran-4-ylidenemethyl)ethyl}formamide]: the IC50 at Human MMP1 is more than 100 µM; on Human MMP2, 28 µM; at Human MMP3, 4.2 µM; at Human MMP9, more than 100 µM; at Human MMP13, 32 µM; on Human MMP8, 23 µM. Further, the half-maximal inhibitory concentration (IC50) at Human MMP14 was 77 µM; at Human MMP17, 2.2 µM.
Turning to `Cc1cc(Cl)cc(COc2ccc(S(=O)(=O)CC(CC3CCC(=O)CC3)N(O)C=O)cc2)c1` (stereo not drawn) [Example I-101], the half-inhibitory concentration (IC50) on Human MMP1 is 40 µM; at Human MMP2, 2.3 µM; on Human MMP3, 7 µM; against TACE it was 0.12 µM; on Human MMP9, 20 µM; at Human MMP13 it was 3 µM. In addition, the figures for the IC50 on Human MMP14 and on Human MMP17 were 20 µM and 5 µM, respectively.
In the case of `Cc1cc(COc2ccc(S(=O)(=O)CC(CN3CCN(CC(C)C)CC3)N(O)C=O)cc2)c2ccccc2n1` (stereo not drawn) [Example I-46], the IC50 was more than 100 µM at Human MMP1; 20 µM at Human MMP2; 4.4 µM at Human MMP3; 0.022 µM against TACE; more than 100 µM at Human MMP9; 42 µM at Human MMP13. For the same compound, the IC50 is more than 100 µM on Human MMP14 and 0.65 µM at Human MMP17.
Take `Cc1cc(Cl)cc(COc2ccc(S(=O)(=O)CC(C=C3CCC(=NO)CC3)N(O)C=O)cc2)c1` (stereo not drawn) [Example I-102]: the IC50 on Human MMP1 was determined as 80 µM; at Human MMP2 it was 20 µM; on Human MMP3 it was 25 µM; against TACE, 0.13 µM; at Human MMP9, 40 µM; on Human MMP13, 16 µM. For the same compound, the half-maximal inhibitory concentration (IC50) at Human MMP14 amounted to 33 µM; at Human MMP17 it was 30 µM.
Turning to `Cc1cc(COc2ccc(S(=O)(=O)CC(c3ccccc3C)N(O)C=O)cc2)c2ccccc2n1` (stereo not drawn) [Example I-23], the concentration for half-maximal inhibition (IC50) at Human MMP1 turned out to be 60 µM; on Human MMP2, 30 µM; at Human MMP3, 3 µM; at TACE it was 0.005 µM; at Human MMP9, 50 µM; at Human MMP13 it was 15 µM. In addition, the IC50 on Human MMP14 came to 33 µM; at Human MMP17, 2.1 µM.

For the origin of these results see patent US7511144B2, “Reverse hydroxamic acid derivatives” (Kaken Pharmaceutical Co., Ltd., priority 2001, dated 2009).
